PubChem BioAssay (NCI)
“And” between values parts separate entries of the source, which are not always exact repeats. Equal entries are not always repeated.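 Cultured in 96-well plates, cells were exposed to test compound for 48 hours across five concentrations. At the GI50, growth is halved. TGI is the concentration that stops growth completely.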

Columns and labels:
Assay in all cases: inhibition of tumour cell growth, NCI panel, 48 h
[1] = test system: OVCAR-8 ovarian
[2] = test system: SF-268 CNS
[3] = test system: OVCAR-4 ovarian
[4] = test system: HCT-15 colon
[5] = test system: HL-60(TB) leukemia
[6] = test system: HCC-2998 colon
[7] = test system: NCI-H522 lung
[8] = test system: PC-3 prostate
[9] = test system: RPMI-8226 leukemia
[10] = test system: SK-MEL-2 melanoma

Row | Structure (SMILES) | GI50 [1] [µM] | GI50 [2] [µM] | TGI [2] [µM] | TGI [3] [µM] | GI50 [4] [µM] | GI50 [5] [µM] | TGI [5] | GI50 [6] [µM] | TGI [6] | GI50 [7] | TGI [7] | GI50 [8] [µM] | TGI [8] [µM] | GI50 [9] [µM] | GI50 [10] [µM] | TGI [10] | TGI [1] [µM] | GI50 [3] [µM] | TGI [4] [µM] | TGI [9] [µM]
1 | COc1cccc(-c2cc(=O)c3cc(OC)ccc3[nH]2)c1 | 0.79 | 0.626 | 24.2 | > 100 | 0.0485 | 0.0194 | 0.405 µM and 0.0536 µM | 0.118 | 2.59 µM and 0.443 µM | 0.121 µM and 0.0373 µM | 0.392 µM and 0.175 µM | 0.112 | > 100 | 0.0288 | 0.0774 | 7.11 µM and 20.2 µM |  |  |  | 
2 | CN(C)CCCOc1ccc(-c2ccc3ncc4c(c3c2)n(C2CCOCC2)c(=O)n4C)cn1 | 3.24 | 2.04 | 29.5 | 11.3 | 3.08 | 2.48 | 15.9 µM | 2.51 | 15.6 µM | 0.985 µM | 12.4 µM | 0.861 | 13.8 | 1.1 | 1.47 | 6.21 µM | 17.2 | 1.34 | 18 | 8.63
3 | COc1ccc(-c2cc(=O)c3ccc(C)nc3[nH]2)cc1 |  |  | > 100 | > 100 |  | > 100 | > 100 µM |  | > 100 µM |  | > 100 µM | > 100 | > 100 |  |  | > 100 µM | > 100 |  | > 100 | > 100
4 | COC(=O)c1c2c(c[n+]([O-])c1C)C(=O)C=CC2=O | 2.93 | 2.83 | 10.7 | 2.83 | 1.78 | 2.13 | 5.75 µM | 4.25 | 15.5 µM | 1.72 µM | 4.5 µM | 4.34 | 55.1 | 3.9 | 2.08 | 4.5 µM | 10.8 | 1.44 | 3.51 | 26.6
5 | COc1cc(/C=C2\C(=O)Nc3cc(C)c(O)cc32)cc(OC)c1OC | 7.33 | 5.34 | 36 | > 67.7 | 2.84 | 1.74 | 5.84 µM | 5.18 | 17.5 µM | 2.59 µM | 12.1 µM | 4.32 | > 100 | 1.47 | 2.97 | 14.5 µM | > 67.3 | 8.23 | 14.5 | 4.41
6 | COc1cc(OC)cc(N(CCNC(C)C)c2ccc3ncc(-c4cnn(C)c4)nc3c2)c1 | 4.75 | 3.53 | 19 | 14.8 | 3.34 | 7.37 | 22.7 µM | 11.2 | 24.9 µM | 7.82 µM | 23.4 µM | 6.54 | 23.2 | 7.3 | 7.31 | 25 µM | 18.9 | 2.25 | 13.5 | 33.1
7 | Cn1cc(C2=C(c3cn(CCCCN)c4ccccc34)C(=O)NC2=O)c2ccccc21 | > 25 | > 25 | > 25 | > 25 | > 25 | > 25 | > 25 µM | > 25 | > 25 µM | > 25 µM | > 25 µM | > 25 | > 25 | > 25 | > 25 | > 25 µM | > 25 | > 25 | > 25 | > 25
8 | Cc1nn(-c2nc3ccccc3[nH]2)c(N)c1-c1ccc(Cl)cc1 | 4.36 | 5.65 | > 100 | > 100 | 3.88 | 4.31 | 25.1 µM | 5.12 | > 100 µM | 4.04 µM | > 100 µM | 2.97 | > 100 | 4.37 | 5.88 | > 100 µM | > 100 | 5.1 | > 100 | > 100
9 | CNC(=O)c1ccc(N2CCN(Cc3ccc4nc(C)c(=O)[nH]c4c3F)CC2)c(F)n1 | 58.7 | 43.3 | > 100 | > 100 | > 100 | > 100 | > 100 µM | > 100 | > 100 µM | 21.2 µM | > 100 µM | > 100 | > 100 | > 100 | 76.2 | > 100 µM | > 100 | > 100 | > 100 | > 100
10 | CC(C)=CCc1c(OC(=O)c2c(C)cc(O)cc2O)cc(CO)c(CO)c1O |  |  | 85 | 38.2 |  |  | 19.1 µM |  | 31.7 µM |  | 39.2 µM |  | 36.8 |  |  | 59.5 µM | 63.9 |  | 34.6 | 
11 | CCCC(=O)NC1=C(Cl)C(=O)c2ccccc2C1=O |  |  | 30.2 | 17.1 |  |  | 0.899 µM |  | 16.3 µM |  | 2.37 µM |  | 13.8 |  |  | 6.07 µM | 34.8 |  | 12.2 | 6.19
12 | C#Cc1cccc(N2C(=O)CCC2=O)c1 |  |  | 33.1 | 20.5 |  |  | 10.4 µM |  | 29.5 µM |  | 11.9 µM |  | 28.6 |  |  | 36.6 µM | 36.1 |  | 50 | 15.9
13 | O=C(CC(c1ccccc1)c1c(O)c2ccccc2oc1=O)c1ccccc1 (configuration not stated) |  |  | > 100 | > 100 |  |  | > 100 µM |  | > 100 µM |  | > 100 µM |  | > 100 |  |  | > 100 µM | > 100 |  | > 100 | > 100
14 | COC(=O)[C@@H](C)C[C@H](Cc1ccccc1)NC(=O)c1csc(CC[C@H](C(C)C)N(C)C(=O)[C@@H](NC(=O)[C@H]2CCCCN2C)C(C)C)n1 | 0.465 | 0.722 | > 33.3 | > 33.3 | 0.604 | 0.0799 | 0.298 µM | 0.562 | > 33.3 µM | 0.0656 µM | 0.301 µM | 0.383 | > 33.3 | 0.135 | 0.149 | > 33.3 µM | > 33.3 | 0.991 | > 33.3 | > 33.3
15 | COc1cc(-c2cc3ncccc3c3nc(N)c4cccnc4c23)cc(OC)c1OC | 0.756 | 0.752 | > 100 | > 100 | 0.44 | 0.217 | 0.717 µM | 1.66 | > 100 µM | 0.0576 µM | 12 µM | 0.579 | > 100 | 0.556 | 0.533 | 8.86 µM | 46 | 3.16 | 61.9 | 23.9
16 | O=c1c(Oc2ccc(F)cc2F)cc2cnc(NC3CCOCC3)nc2n1CCCO | > 25 | > 25 | > 25 | > 25 | > 25 | > 25 | > 25 µM | > 25 | > 25 µM | > 25 µM | > 25 µM | > 25 | > 25 | > 25 | > 25 | > 25 µM | > 25 | > 14.6 | > 25 | > 25
17 | COc1cc(C#Cc2ccc(=O)oc2C#Cc2ccccc2)cc(OC)c1OC | 2.93 | 2.38 | 5.85 | 68.6 | 2.31 | 4.62 | 40.1 µM | 2.6 | 9.87 µM | 1.73 µM | 3.57 µM | 4.13 | 16.3 | 2.33 | 5.69 | 12.7 µM | 10.3 | 4.97 | 5.1 | 17.7
18 | CC(=O)O[C@H]1CC[C@@]2(C)C(=CC[C@H]3[C@@H]4CC[C@H](c5cc(C(F)(F)F)n(C(C)=O)n5)[C@@]4(C)CC[C@@H]32)C1 |  |  | > 48.1 | 15.6 |  |  | 15.4 µM |  | 27.3 µM |  | > 38.5 µM |  | 16 |  |  | 20.8 µM | 24.8 |  | 21.8 | 17.9
19 | S=C(Nc1ccc(Br)cc1)Nc1ccc(Br)cc1 | 18.2 | 67.8 | > 100 | > 100 | 3.35 | 5.79 | > 100 µM | 5.04 | > 100 µM | 2.92 µM | 98.6 µM | 4.17 | > 100 | 4.05 | 7.93 | > 100 µM | > 100 | 7.51 | > 100 | > 100
20 | CCC12CCCN(Cc3ccccc3)C1c1c([nH]c3ccccc13)C(C(=O)OC)C2 (configuration not stated) |  |  | > 10 | > 10 |  |  | > 10 µM |  | > 10 µM |  | > 10 µM |  | > 10 |  |  |  | > 10 |  | > 10 | > 10
21 | COc1ccc(C(=O)/C=C/c2ccc(C)cc2)cc1OC | 11.8 | 11.7 | 24.4 | 24.7 | 8.52 | 23.2 | 62.4 µM | 14.4 | 27.4 µM | 11.1 µM | 26.4 µM | 15.4 | 32.4 | 17.5 | 15.9 | 40.1 µM | 27.6 | 12.2 | 22.1 | 47
22 | COC(=O)CCc1c[nH]c2ccc(N(CCCl)CCCl)cc12 | 3.05 | 1.25 | 30 | 52.2 | 3.16 | 0.429 | > 100 µM | 8.33 | 27.1 µM | 1.79 µM | 6.02 µM | 8.65 | > 73.4 | 3.05 | 9.71 | 59 µM | > 60.5 | 7.71 | > 59.3 | > 55.9
23 | CCC[CH2][Sn]([CH2]CCC)([CH2]CCC)[O]c1ccc(Cl)cc1Cl | 0.163 | 0.128 | 0.301 | 0.236 | 0.156 | 0.129 | 0.415 µM | 0.0949 | 0.226 µM | 0.149 µM | 0.297 µM | 0.15 | 0.443 |  | 0.152 | 0.295 µM | 0.354 | 0.114 | 0.333 | 
24 | [Cl][Hg][Cl] | 21.6 | 18.1 | 46.9 | 35 | 15.8 | 3.24 | 10.1 µM | 17.5 | 31.7 µM |  |  | 17.3 | 32 | 20 | 16.2 | 34.5 µM | 56.3 | 16.9 | 30.1 | > 60.3
25 | Cc1ccc(-c2csc(/N=C3\C(=O)Nc4ccccc43)n2)cc1 | 2.47 | 1.52 | 3.5 | 6.48 | 2.37 |  |  | 1.6 | 3.21 µM | 1.51 µM | 3.49 µM | 1.08 | 2.82 | 1.05 | 1.63 | 3.69 µM | 6.9 | 1.75 | 10.4 | 4.29
26 | C=C1C(=O)O[C@H]2[C@H]1CC/C(COC(=O)CSCCSCC(=O)OC/C1=C/CC[C@@]3(C)O[C@H]3[C@H]3OC(=O)C(=C)[C@@H]3CC1)=C\CC[C@@]1(C)O[C@@H]21 | 1.97 | 1.71 | 4.08 | 6.05 | 1.55 |  |  | 1.85 | 3.52 µM | 1.29 µM | 2.8 µM | 2.5 | 8.33 | 1.32 | 2.76 | 6.64 µM | 4.6 | 2.38 | 3.01 | 4.48
27 | C=C(c1ccc2nc(NC(=O)OC)[nH]c2c1)c1cccs1 |  |  | > 100 | > 100 |  |  | > 32.7 µM |  | 0.86 µM |  |  |  | > 100 |  |  | > 100 µM | > 36.4 |  | 2.24 | 3.59
28 | CC(C)CCC(=O)c1ccoc1 |  |  | > 100 | > 100 |  |  | > 100 µM |  | > 100 µM |  |  |  | > 100 |  |  | > 100 µM | > 100 |  | > 100 | > 100
29 | COc1cc(NC(N)=NCCC(C)(C)Oc2ccc(C(F)(F)F)cc2)ncc1C#N | 1.79 | 1.72 | 3.31 | 3.07 | 1.65 |  |  | 1.58 | 3.01 µM | 1.47 µM | 2.9 µM | 1.42 | 2.82 |  | 1.79 | 3.27 µM | 3.54 | 1.58 | 3.07 | 
